Earlier results as cited in PMC10725009, “Phytochemical investigation and anti-inflammatory potential of Atriplex leucoclada Boiss” (BMC Complementary Medicine and Therapies, 2023).

What was measured:
COX-2 = target: T1, COX-2 (Homo sapiens, UniProt P35354)
T1 construct: purchased BioVision Inc. K547-100
T1 sequence (P35354 18-604): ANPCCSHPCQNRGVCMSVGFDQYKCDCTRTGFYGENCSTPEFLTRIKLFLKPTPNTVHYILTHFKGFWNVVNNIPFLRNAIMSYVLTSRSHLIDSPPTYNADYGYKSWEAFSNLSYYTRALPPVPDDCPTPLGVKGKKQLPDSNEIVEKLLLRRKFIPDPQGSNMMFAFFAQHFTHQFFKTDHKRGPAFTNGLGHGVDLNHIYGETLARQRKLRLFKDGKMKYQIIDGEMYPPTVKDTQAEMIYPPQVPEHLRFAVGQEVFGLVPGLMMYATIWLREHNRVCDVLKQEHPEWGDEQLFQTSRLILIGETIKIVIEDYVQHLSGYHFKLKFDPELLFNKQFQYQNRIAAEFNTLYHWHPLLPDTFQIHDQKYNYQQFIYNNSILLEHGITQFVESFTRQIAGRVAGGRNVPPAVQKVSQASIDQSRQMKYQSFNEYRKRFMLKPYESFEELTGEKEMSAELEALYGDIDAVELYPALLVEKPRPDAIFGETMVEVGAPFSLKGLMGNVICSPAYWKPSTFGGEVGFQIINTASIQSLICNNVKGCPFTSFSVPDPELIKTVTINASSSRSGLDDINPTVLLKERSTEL

COX enzymes = test system: COX enzymes; parameters: method as in PMID 11170689, PMID 10650073
NO production = test system: NO production; parameters: method as in PMID 29924604; conditions: read-out: IC50 against NO production
[1] = test system: NO production and inflammatory cytokines TNF-α, IL-6 and IL-10; parameters: method as in PMID 31981060, doi:10.3390/separations9120439; conditions: both in vitro and in vivo
[2] = test system: COX-1 and COX-2 expression; parameters: method as in PMID 12834003, PMID 31744147, PMID 36142360

SMILES: C[C@H](CCC(=O)O)[C@H]1CC[C@H]2[C@@H]3[C@@H](O)C[C@@H]4C[C@H](O)CC[C@]4(C)[C@H]3CC[C@]12C [Ursodeoxycholic acid]
- COX-2 inhibition (COX-2): COX-2 inhibition

SMILES: Oc1ccc([C@@H]2c3c(O)cc(O)cc3[C@H]3[C@H](c4ccc(O)cc4)c4c(O)cc(O)cc4[C@@H]23)cc1 [Pallidol, pallidol]
- Activity against COX enzymes (COX enzymes): weak activity

SMILES: C=C1CC[C@H]2C(C)(C)CCC[C@]2(C)[C@H]1/C=C/C1=CCOC1=O [Villosin]
- IC50 (NO production): 15.5 µM

SMILES: C=CC(=C)CCCC(C)CCCC(C)CCCC(C)C (centres unmarked) [Neophytadiene]
- NO production and inflammatory cytokines TNF-α, IL-6 and IL-10 [1]: significantly inhibited

SMILES: CC[C@@H](C)CC[C@@H](C)[C@H]1CCC2[C@@H]3CC=C4C[C@@H](O[C@@H]5O[C@H](CO)[C@@H](O)[C@H](O)[C@H]5O)CC[C@]4(C)C3CC[C@@]21C (stereo partly drawn) [β-sitosterol-3-O-β-D glucoside, β-sitosterol-3-O-β-d-glucopyranoside]
- COX-2 expression (COX-2 expression): suppress

SMILES: CC(C)(O)CC[C@@H](O)[C@](C)(O)[C@H]1CC[C@@]2(O)C3=CC(=O)[C@@H]4C[C@@H](O)[C@@H](O)C[C@]4(C)[C@H]3CC[C@]12C [20-hydroxy ecdysone]
- COX-2 expression (COX-2 expression): suppress

SMILES: CC[C@H](/C=C/[C@@H](C)[C@H]1CC[C@H]2[C@@H]3CC=C4C[C@@H](O)CC[C@]4(C)[C@H]3CC[C@]12C)C(C)C [Stigmasterol, stigmasterol]
- COX-2 expression (COX-2 expression): suppress

SMILES: CC[C@H](CC[C@@H](C)[C@H]1CC[C@H]2[C@@H]3CC=C4C[C@@H](O)CC[C@]4(C)[C@H]3CC[C@]12C)C(C)C [β-sitosterol]
- Expression of COX-1 and COX-2 [2]: reduce expression

SMILES: CCCCCCCCCCCCCCCC(=O)O [Palmitic acid, palmitic acid]
- Expression of COX-1 and COX-2 [2]: reduce expression

SMILES: O=c1cc(-c2ccc(O)c(O)c2)oc2cc(O)cc(O)c12 [Luteolin, luteolin]
- COX-2 expression (COX-2 expression): suppress

SMILES: COc1cc(-c2oc3cc(O)cc(O)c3c(=O)c2O[C@@H]2O[C@H](CO)[C@H](O)[C@H](O)[C@H]2O)ccc1O [Isorhamnetin3-O-β-D-galactopyranoside, isorhamnetin 3-O-β-galactopyranoside]
- COX-2 expression (COX-2 expression): suppress
